Earlier results on five compounds are cited in publication PMC11996792, “First-in-human study of CPL’116 – a dual JAK/ROCK inhibitor – in healthy subjects” (Frontiers in Pharmacology, 2025).

Where two headings read alike, the source gives them in different places.

On to `CCS(=O)(=O)N1CC(CC#N)(n2cc(-c3ncnc4[nH]ccc34)cn2)C1` [baricitinib], for which the mean half-life (ref Shi et al., 2014) is 8.5 h and the mean half-life (ref Zhao et al., 2020) was 5.8 to 7.4 h.

Regarding `CC(C)NC(=O)COc1cccc(-c2nc(Nc3ccc4[nH]ncc4c3)c3ccccc3n2)c1` [belumosudil], the mean half-life (ref Schueller et al., 2024) was 7.5 to 10.9 h.

In the case of `O=S(=O)(c1cccc2c(O)nccc12)N1CCCNCC1` [hydroxyfasudil], the mean half-life (ref Wolff et al., 2024) is 5.5 to 5.7 h. Consider `C[C@@H]1CCN(C(=O)CC#N)C[C@@H]1N(C)c1ncnc2[nH]ccc12` [tofacitinib], for which the mean half-life by setting is: (extended-release formulation, ref Lamba et al., 2016) 5.9 h; (immediate formulation, ref Lamba et al., 2016) 3.2 h. As to `CC[C@@H]1CN(C(=O)NCC(F)(F)F)C[C@@H]1c1cnc2cnc3[nH]ccc3n12` [upadacitinib], the mean half-life (ref Mohamed et al., 2016) was 5.9 to 14.5 h.
